Assay in all cases: growth of human tumour cells (NCI), 48 h
Experiment [1] concerns SK-MEL-2 melanoma.
For experiment [2], the system named is HS 578T breast.
Experiment [3] has as its system RXF 393 renal.
For experiment [4], the system named is 786-0 renal.
Experiment [5] has as its system SK-MEL-28 melanoma.
The test system of experiment [6] is HOP-62 NSCLC.
The test system of experiment [7] is K-562 leukemia.
For experiment [8], the system named is BT-549 breast.
Experiment [9] has as its system SK-MEL-5 melanoma.
Experiment [10] deals with UACC-257 melanoma.
The test system of experiment [11] is HT29 colon.
For experiment [12], the system named is CAKI-1 renal.
Experiment [13] concerns NCI-H226 lung.
Experiment [14] relates to HCT-15 colon.
In experiment [15] the test system is UO-31 renal.
The test system of experiment [16] is DU-145 prostate.

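Cells were grown in 96-well plates and exposed to each compound for 48 hours at five concentrations; endpoints were interpolated linearly between bracketing concentrations, or set to the highest concentration if not reached. At the TGI there is no net growth.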 Bounds are passed on as bounds.

For `CN(/N=C(\C(=O)O)c1ccccc1)C1=NCCCN1`, the TGI in experiment [1], in [2], in experiment [3], in experiment [4], in experiment [5] and in [6] was over 100 µM each time. Further, the TGI in [7], in experiment [8], in experiment [9], in experiment [10], in experiment [11] and in [12] was over 100 µM in each case. The TGI in experiment [13], in experiment [14], in [15] and in experiment [16] was over 100 µM throughout.
For the molecule `CC12Nc3ccccc3N1C(=O)c1ccccc12` (stereo not drawn), the TGI in [1], in [2], in experiment [3], in [4], in experiment [5] and in experiment [6] was over 100 µM throughout. Moreover, the TGI in experiment [7], in experiment [8], in [9], in [10], in [11] and in experiment [12] was over 100 µM in each case. Moreover, the TGI in experiment [13], in [14], in [15] and in [16] was over 100 µM each time.
In the case of `CSc1nc(N)c(NC2OC(CO)C(O)C2O)c(=O)[nH]1` (stereo not drawn), the TGI in experiment [1], in [2], in experiment [3], in experiment [4], in experiment [5] and in [6] was over 100 µM in each case. The TGI in [7], in [8], in experiment [9], in [10], in [11] and in [12] was over 100 µM in each case. Moreover, the TGI in experiment [13], in [14], in experiment [15] and in experiment [16] was over 100 µM in each case.
As for `COC(=O)c1ccc2c(O)c(O)ccc2c1`, the TGI in experiment [1] is 13.8 µM; in [2], over 69.2 µM; in experiment [3], 31.4 µM; in [4] it was 29.3 µM; in experiment [5], 31.4 µM; in [6], 32.9 µM. The TGI in experiment [7] is 5.43 µM; in experiment [8], 27.2 µM; in experiment [9] it was 8.58 µM; in [10], 28.1 µM; in [11] it was 33.7 µM; in [12] it was 47.3 µM. In addition, the TGI in experiment [13] came out at 46.1 µM; in experiment [14], 27.8 µM; in experiment [15], 36.4 µM; in experiment [16] it was 30.1 µM.
With `Cc1ccc(-c2nc3ccc(Cl)cc3[nH]2)cc1`, the TGI in experiment [1], in experiment [2], in experiment [3], in [4], in experiment [5] and in experiment [6] was over 100 µM each time. The TGI in experiment [7], in experiment [8], in experiment [9], in experiment [10], in [11] and in experiment [12] was over 100 µM throughout. The TGI in experiment [13], in experiment [14], in [15] and in experiment [16] was over 100 µM in each case.
Consider `CCC1C(c2cc(OC)c(OC)c(OC)c2)c2cc3c(cc2OC1N1CCCC1)OCO3` (stereo not drawn), for which the TGI came to 13 µM in experiment [1]; 14.1 µM in experiment [2]; 9.31 µM in experiment [3]; 22.2 µM in [4]; 60.6 µM in [5]; 15.9 µM in experiment [6]. Moreover, the TGI in experiment [7] was determined as 8.62 µM; in [8] it was 49.4 µM; in experiment [9], 12.5 µM; in experiment [10], 55.6 µM; in experiment [11], 10.9 µM; in experiment [12] it was 9.8 µM. For the same molecule, the TGI in experiment [13] is 8.78 µM; in [14], 27.2 µM; in experiment [15], 23.1 µM; in experiment [16], 14.6 µM.
On to `Cc1c(/C=N/NC(=S)Nc2ccccc2Cl)c(=O)n(-c2ccccc2)n1C`, for which the TGI in experiment [1] was over 100 µM; in experiment [2], 85.3 µM; in experiment [3] it was 47.9 µM; in experiment [4], 50 µM; in experiment [5] it was over 100 µM; in [6] it was 78.2 µM. Moreover, the TGI was over 100 µM in [7]; over 100 µM in experiment [8]; over 100 µM in [9]; over 100 µM in experiment [10]; over 100 µM in experiment [11]; 81.3 µM in [12]. Besides, the TGI in experiment [13], in experiment [14], in [15] and in experiment [16] was over 100 µM throughout.
Turning to `O=C(NCc1cccnc1)NCc1cccnc1`, the TGI in experiment [1], in experiment [2], in experiment [3], in [4], in [5] and in [6] was over 100 µM each time. Besides, the TGI in experiment [7], in experiment [8], in [9], in [10], in experiment [11] and in [12] was over 100 µM in each case. Moreover, the TGI in experiment [13], in experiment [14], in experiment [15] and in experiment [16] was over 100 µM in each case.

The values above are taken from PubChem BioAssay (NCI).
